According to patent US8426202B2, “Cell culture medium” (Cellca GmbH, priority 2005, dated 2013):
Several values for one entry are separate records, joined by “and”; a condition that tells them apart may be missing. Identical values can stand only once. Like-named read-outs stand apart in the source and are kept apart here.

Columns and labels:
[1] = tested on: CHO cell line that expresses an antibody; details: fed-batch; substance 1 g/l; supernatant, ELISA; absolute value of the control set at 100%
Method: A CHO cell line that expresses an antibody was used for the experiments. The product concentration (antibody concentration) in the cell supernatant was determined by ELISA.
From selected samples, the product concentration (antibody concentration) in the supernatant was determined by ELISA (Table 3)

[2] = tested on: CHO cell line that expresses an antibody; assay: Batch experiment with the substances according to the invention (Example 1); assay type: cell-based, Chinese hamster; details: batch mode, substance 0.5-1 g/l, basal medium glucose 4.7 g/l, glutamine […]
[3] = tested on: CHO cell line that expresses an antibody; details: fed-batch, glutamine-free basal and feed media, substance 0.5-1 g/l
From the text: (§1) A CHO cell line that expresses an antibody was used for the experiments.
This is a serum-free, protein-free nutrient medium. It is a ready-made, sterile-filtered nutrient medium.
After 1-4 days the cells were supplemented with a feed medium, i.e. the process was switched to fed-batch mode. Feed took place at regular intervals. In fed-batch experiments, a protein-free and serum-free feed medium from the company HyQ (R05.2 supplement, Cat. No.: SH30584.04, Lot No.: APF21457G) was used.
All substances (chemicals) used according to the invention were obtained from the company Sigma and stock solutions were prepared from them. From the stock solutions, the substances were put at the desired final concentration in culture tubes. The various culture tubes prepared in this way were finally inoculated with the antibody-producing CHO-clone at a target inoculation cell concentration (1-3×10^5/ml). For this, the corresponding amount of inoculum cells was calculated and the required amount of inoculum cell suspension was centrifuged. […] In this way the desired inoculation cell concentration was adjusted in the cell suspension being investigated. The cell suspension thus prepared was proportioned in the culture tubes, which were provided with the substances according to the invention beforehand. The culture tubes were incubated at 37° C., and 8% CO2 atmosphere, with shaking. The culture tubes were cultivated for 8-11 days in the batch mode or in the fed-batch mode. Samples for offline measurement of the variables were taken from the culture vessels at regular intervals, for example daily or on every third day. The metabolic variables and cell concentrations of the samples were measured. Cell concentration and cell vitality were measured with a CeDex instrument. The metabolic variables (glucose, lactate, glutamine and ammonium) were determined with an analyzer (BioProfile 100).
(§2) The following final concentrations of the substances according to the invention were established in a nutrient medium after inoculation:
The substances according to the invention were tested under fed-batch conditions. […] The feed medium used was from the company HyQ (R05.2 supplement, Cat. No.: SH30584.04, Lot No.: APF21457G). The feed medium was glutamine-free (Table 4).

[4] = tested on: CHO cell line that expresses an antibody; details: fed-batch, basal medium 4 mM glutamine, feed with 3 g/l Ala-Gln and 3 g/l Gly-Gln, substance 0.5-1 g/l
Method: as §1
The experiments were carried out either in batch mode or in fed-batch mode. When the process was carried out in fed-batch mode, the process was first started in batch mode in the above-mentioned basal medium and cells were cultivated in this manner for 1-4 days. After 1-4 days the cells were supplemented with a feed medium, i.e. the process was switched to fed-batch mode. Feed took place at regular intervals. In fed-batch experiments, a protein-free and serum-free feed medium from the company HyQ (R05.2 supplement, Cat. No.: SH30584.04, Lot No.: APF21457G) was used.
From the stock solutions, the substances were put at the desired final concentration in culture tubes. The various culture tubes prepared in this way were finally inoculated with the antibody-producing CHO-clone at a target inoculation cell concentration (1-3×10^5/ml). For this, the corresponding amount of inoculum cells was calculated and the required amount of inoculum cell suspension was centrifuged. […] In this way the desired inoculation cell concentration was adjusted in the cell suspension being investigated. The cell suspension thus prepared was proportioned in the culture tubes, which were provided with the substances according to the invention beforehand. The culture tubes were incubated at 37° C., and 8% CO2 atmosphere, with shaking. The culture tubes were cultivated for 8-11 days in the batch mode or in the fed-batch mode. Samples for offline measurement of the variables were taken from the culture vessels at regular intervals, for example daily or on every third day. The metabolic variables and cell concentrations of the samples were measured. Cell concentration and cell vitality were measured with a CeDex instrument. The metabolic variables (glucose, lactate, glutamine and ammonium) were determined with an analyzer (BioProfile 100).
as §2
The substances according to the invention were tested under fed-batch conditions. […] The feed medium used was from the company HyQ (R05.2 supplement, Cat. No.: SH30584.04, Lot No.: APF21457G). 3 g/l alanyl-glutamine (Ala-Gin) and 3 g/l glycyl-glutamine (Gly-Gln) were added to the feed medium.

[5] = tested on: CHO cell line that expresses an antibody; assay: Fed-batch experiment with the substances according to the invention (Example 2, Table 2); assay type: cell-based, Chinese hamster; set-up: Viabil.: concentration or dose not given beside the values
From the text: Feed took place at regular intervals.

CC(O)C(=O)[O-].[Na+] (stereo not shown) [Sodium lactate]
Antibody concentration [1]: 124%
Gln ([2]; day 0): 1.53 mM
Glucose ([2]; day 0): 4.69 g/L
Lactate ([2]; day 0): 1 g/L
NH4 ([2]; day 0): 1.22 mM
Specific Glutamin consumption (Gln/VCD) ([2]; day 0): 1.49
Specific ammonia production (NH4/VCD) ([2]; day 0): 1.18
Specific glucose consumption (Gluc/VCD) ([2]; day 0): 4.55
Specific lactate production (Lac/VCD) ([2]; day 0): 0.97
Total Cell Density TCD ([2]; day 0): 1.07 E5/ml
Viabil. ([2]; day 0): 96%
Viable Cell Density (VCD) ([2]; day 0): 1.03 E5/ml
Gln ([2]; day 3): 1.12 mM
Glucose ([2]; day 3): 4.44 g/L
Lactate ([2]; day 3): 1.15 g/L
NH4 ([2]; day 3): 1.65 mM
Specific Glutamin consumption (Gln/VCD) ([2]; day 3): 0.19
Specific ammonia production (NH4/VCD) ([2]; day 3): 0.28
Specific glucose consumption (Gluc/VCD) ([2]; day 3): 0.74
Specific lactate production (Lac/VCD) ([2]; day 3): 0.19
Total Cell Density TCD ([2]; day 3): 6 E5/ml
Viabil. ([2]; day 3): 100%
Viable Cell Density (VCD) ([2]; day 3): 6 E5/ml
Gln ([2]; day 6): 0.31 mM
Glucose ([2]; day 6): 2.82 g/L
Lactate ([2]; day 6): 1.49 g/L
NH4 ([2]; day 6): 2.07 mM
Specific Glutamin consumption (Gln/VCD) ([2]; day 6): 0.01
Specific ammonia production (NH4/VCD) ([2]; day 6): 0.05
Specific glucose consumption (Gluc/VCD) ([2]; day 6): 0.07
Specific lactate production (Lac/VCD) ([2]; day 6): 0.04
Total Cell Density TCD ([2]; day 6): 41 E5/ml
Viabil. ([2]; day 6): 99%
Viable Cell Density (VCD) ([2]; day 6): 40.6 E5/ml
Gln ([2]; day 8): 0.35 mM
Glucose ([2]; day 8): 1.79 g/L
Lactate ([2]; day 8): 1.47 g/L
NH4 ([2]; day 8): 2.63 mM
Specific Glutamin consumption (Gln/VCD) ([2]; day 8): 0.02
Specific ammonia production (NH4/VCD) ([2]; day 8): 0.12
Specific glucose consumption (Gluc/VCD) ([2]; day 8): 0.08
Specific lactate production (Lac/VCD) ([2]; day 8): 0.07
Total Cell Density TCD ([2]; day 8): 23.7 E5/ml
Viabil. ([2]; day 8): 90%
Viable Cell Density (VCD) ([2]; day 8): 21.3 E5/ml
Gln ([2]; day 11): 0.5 mM
Glucose ([2]; day 11): 0.55 g/L
Lactate ([2]; day 11): 1.04 g/L
NH4 ([2]; day 11): 3.12 mM
Specific Glutamin consumption (Gln/VCD) ([2]; day 11): 0.04
Specific ammonia production (NH4/VCD) ([2]; day 11): 0.27
Specific glucose consumption (Gluc/VCD) ([2]; day 11): 0.05
Specific lactate production (Lac/VCD) ([2]; day 11): 0.09
Total Cell Density TCD ([2]; day 11): 24.5 E5/ml
Viabil. ([2]; day 11): 47%
Viable Cell Density (VCD) ([2]; day 11): 11.4 E5/ml
Sp. Gluc cons. ([3]; day 0): 93
Sp. NH4 prod ([3]; day 0): 98 % of control
TCD ([3]; day 0): 100 % of control
VCD ([3]; day 0): 100 % of control
Viabil. ([3]; day 0): 94%
Sp. Gluc cons. ([3]; day 3): 66
Sp. Lactate prod. ([3]; day 3): 72 % of control
Sp. NH4 prod ([3]; day 3): 63 % of control
TCD ([3]; day 3): 140 % of control
VCD ([3]; day 3): 148 % of control
Viabil. ([3]; day 3): 94%
Sp. Gluc cons. ([3]; day 5): 74
Sp. Lactate prod. ([3]; day 5): 66 % of control
Sp. NH4 prod ([3]; day 5): 72 % of control
TCD ([3]; day 5): 128 % of control
VCD ([3]; day 5): 136 % of control
Viabil. ([3]; day 5): 97%
Sp. Gluc cons. ([3]; day 7): 62
Sp. Lactate prod. ([3]; day 7): 57 % of control
Sp. NH4 prod ([3]; day 7): 66 % of control
TCD ([3]; day 7): 136 % of control
VCD ([3]; day 7): 147 % of control
Viabil. ([3]; day 7): 95%
Sp. Gluc cons. ([3]; day 9): 71
Sp. Lactate prod. ([3]; day 9): 65 % of control
Sp. NH4 prod ([3]; day 9): 73 % of control
TCD ([3]; day 9): 131 % of control
VCD ([3]; day 9): 133 % of control
Viabil. ([3]; day 9): 95%
Total Cell Density TCD ([4]; day 0): 1.1 E5/ml
Viabil. ([4]; day 0): 96%
Viable Cell Density (VCD) ([4]; day 0): 1.0 E5/ml
Total Cell Density TCD ([4]; day 3): 7.9 E5/ml
Viabil. ([4]; day 3): 96%
Viable Cell Density (VCD) ([4]; day 3): 7.6 E5/ml
Total Cell Density TCD ([4]; day 5): 45.2 E5/ml
Viabil. ([4]; day 5): 96%
Viable Cell Density (VCD) ([4]; day 5): 43.3 E5/ml
Total Cell Density TCD ([4]; day 7): 41.1 E5/ml
Viabil. ([4]; day 7): 83%
Viable Cell Density (VCD) ([4]; day 7): 34.3 E5/ml
Total Cell Density TCD ([4]; day 9): 34.7 E5/ml
Viabil. ([4]; day 9): 73%
Viable Cell Density (VCD) ([4]; day 9): 25.2 E5/ml
Total Cell Density TCD ([5]; day 0, fed-batch): 1.5 E5/ml
Viabil. ([5]; day 0, fed-batch): 91%
Viable Cell Density (VCD) ([5]; day 0, fed-batch): 1.37 E5/ml
Total Cell Density TCD ([5]; day 2, fed-batch): 4.6 E5/ml and 4 E5/ml
Viabil. ([5]; day 2, fed-batch): 98% and 95%
Viable Cell Density (VCD) ([5]; day 2, fed-batch): 4.5 E5/ml and 3.8 E5/ml
Total Cell Density TCD ([5]; day 5, fed-batch): 13.1 E5/ml and 14.3 E5/ml
Viabil. ([5]; day 5, fed-batch): 98%
Viable Cell Density (VCD) ([5]; day 5, fed-batch): 12.8 E5/ml and 14 E5/ml
Total Cell Density TCD ([5]; day 8, fed-batch): 52.4 E5/ml and 54.7 E5/ml
Viabil. ([5]; day 8, fed-batch): 96% and 95%
Viable Cell Density (VCD) ([5]; day 8, fed-batch): 50.2 E5/ml and 52 E5/ml
